Each structure is given as a SMILES string.

The results in this text go back to patent publication US20210300900A1, “OGA INHIBITOR COMPOUNDS” (Janssen Pharmaceutica NV, priority 2018, published 2021).

The assay has as its target T1, recombinant human Meningioma Expressed Antigen 5 (MGEA5), also referred to as O-GcNAcase (OGA) (Homo sapiens, UniProt O60502).
T1 construct: Full length OGA enzyme was purchased at OnGene (cat #TP322411); purchased OnGene (so in the source)
T1 sequence (O60502 1-916): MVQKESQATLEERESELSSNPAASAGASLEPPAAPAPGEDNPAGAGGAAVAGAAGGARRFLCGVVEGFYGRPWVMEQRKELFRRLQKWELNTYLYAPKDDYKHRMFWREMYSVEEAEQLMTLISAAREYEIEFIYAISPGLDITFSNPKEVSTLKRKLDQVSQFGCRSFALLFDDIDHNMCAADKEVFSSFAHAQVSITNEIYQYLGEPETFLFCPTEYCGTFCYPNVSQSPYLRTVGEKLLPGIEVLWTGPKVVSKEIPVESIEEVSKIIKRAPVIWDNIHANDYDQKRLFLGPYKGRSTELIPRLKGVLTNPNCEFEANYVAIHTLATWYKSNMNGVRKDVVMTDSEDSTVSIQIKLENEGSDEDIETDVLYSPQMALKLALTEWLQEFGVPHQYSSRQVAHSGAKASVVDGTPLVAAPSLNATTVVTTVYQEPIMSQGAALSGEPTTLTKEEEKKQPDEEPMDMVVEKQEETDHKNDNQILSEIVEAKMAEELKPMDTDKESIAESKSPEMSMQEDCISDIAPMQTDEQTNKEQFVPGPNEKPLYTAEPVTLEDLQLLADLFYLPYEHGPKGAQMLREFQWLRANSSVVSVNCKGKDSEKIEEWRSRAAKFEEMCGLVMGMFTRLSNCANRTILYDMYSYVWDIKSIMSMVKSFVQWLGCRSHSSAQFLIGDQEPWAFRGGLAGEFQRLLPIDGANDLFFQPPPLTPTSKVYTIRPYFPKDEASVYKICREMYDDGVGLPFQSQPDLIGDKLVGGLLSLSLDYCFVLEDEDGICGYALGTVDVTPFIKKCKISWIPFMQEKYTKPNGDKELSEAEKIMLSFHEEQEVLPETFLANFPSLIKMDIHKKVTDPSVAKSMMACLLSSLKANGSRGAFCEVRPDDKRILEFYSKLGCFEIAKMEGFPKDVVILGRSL
As to the kind of experiment: OGA biochemical assay (inhibition of FM-GlcNAc hydrolysis, fluorescence). The following applies: FM-GlcNAc substrate; for Emax: read-out: Enzymatic Emax (%); for IC50: read-out: Enzymatic hOGA, pIC50 (converted). The text has this:
The assay is based on the inhibition of the hydrolysis of fluorescein mono-β-D-N-Acetyl-Glucosamine (FM-GlcNAc) (Mariappa et al. 2015, Biochem J 470:255) by the recombinant human Meningioma Expressed Antigen 5 (MGEA5), also referred to as O-GcNAcase (OGA). The hydrolysis FM-GlcNAc (Marker Gene technologies, cat #M1485) results in the formation of B-D-N-glucosamineacetate and fluorescein. The fluorescence of the latter can be measured at excitation wavelength 485 nm and emission wavelength 538 nm. An increase in enzyme activity results in an increase in fluorescence signal. Full length OGA enzyme was purchased at OnGene (cat #TP322411). The enzyme was stored in 25 mM Tris.HCl, pH 7.3, 100 mM glycine, 10% glycerol at −20° C. Thiamet G and GlcNAcStatin were tested as reference compounds (Yuzwa et al. 2008 Nature Chemical Biology 4:483; Yuzwa et al. 2012 Nature Chemical Biology 8:393). The assay was performed in 200 mM Citrate/phosphate buffer supplemented with 0.005% Tween-20. 35.6 g Na2HPO4 2H2O (Sigma, #C0759) were dissolved in 1 L water to obtain a 200 mM solution. 19.2 g citric acid (Merck, #1.06580) was dissolved in 1 L water to obtain a 100 mM solution. pH of the sodiumphosphate solution was adjusted with the citric acid solution to 7.2. The buffer to stop the reaction consists of a 500 mM Carbonate buffer, pH 11.0. 734 mg FM-GlcNAc were dissolved in 5.48 mL DMSO to obtain a 250 mM solution and was stored at −20° C. OGA was used at a 2 nM concentration and FM-GlcNAc at a 100 uM final concentration. Dilutions were prepared in assay buffer.
50 nl of a compound dissolved in DMSO was dispensed on Black Proxiplate TM 384 Plus Assay plates (Perkin Elmer, #6008269) and 3 μl fl-OGA enzyme mix added subsequently. Plates were pre-incubated for 60 min at room temperature and then 2 μl FM-GlcNAc substrate mix added. […] Plates were briefly centrifuged for 1 min at 1000 rpm and incubate at room temperature for 6 h. To stop the reaction 5 μl STOP buffer were added and plates centrifuge again 1 min at 1000 rpm. Fluorescence was quantified in the Thermo Scientific Fluoroskan Ascent or the PerkinElmer EnVision with excitation wavelength 485 nm and emission wavelength 538 nm.
For analysis a best-fit curve is fitted by a minimum sum of squares method. From this an IC50 value and Hill coefficient was obtained. High control (no inhibitor) and low control (saturating concentrations of standard inhibitor) were used to define the minimum and maximum values.

One may read the Emax as the greatest response seen or fitted, relative to the assay's reference. As for `CCOc1cc(C(C)N2CCC[C@H](Cc3cc(C)nc(C)c3)C2)n(C)n1` (mixture of isomers) [Product 17], the Emax is 96% and the IC50 was 245 nM.

For the compound `CCOc1cc(C(C)N2CCC[C@H](Cc3cc(C)nc(C)c3)C2)nn1C` (mixture of isomers) [Product 18], the Emax amounted to 95% and the IC50 was 575 nM.

On to `CCOc1nc(C(C)N2CCC[C@H](Cc3cc(C)nc(C)c3)C2)cn1C` (mixture of isomers) [Product 24], for which the Emax was found to be 84% and the IC50 is 2000 nM.

Take `COc1cc(C(C)N2CCC[C@H](Cc3cc(C)nc(C)c3)C2)on1` (mixture of isomers) [Product 29]: the Emax came out at 86% and the IC50 is 1260 nM.

`CC(=O)Nc1cc(C(C)N2CCC[C@H](Cc3cc(C)nc(C)c3)C2)cnc1C` (mixture of isomers) [Product 33]: the Emax is 99% and the IC50 is 234 nM.

With `COc1ncc(C(C)N2CCC[C@H](Cc3cc(C)nc(C)c3)C2)cc1F` (mixture of isomers) [Product 45], the maximal response (Emax) stood at 92% and the IC50 is 955 nM.

Regarding `CCOc1cccc(C(C)N2CCC[C@H](Cc3cc(C)nc(C)c3)C2)n1` (mixture of isomers) [Product 49], the Emax was 98% and the IC50 was 219 nM.

`COc1ccc(C(C)N2CCC[C@H](Cc3cc(C)nc(C)c3)C2)cn1` (mixture of isomers) [Product 52]: the Emax was 98% and the IC50 was 229 nM.

Take `COc1cc(C(C)N2CCC[C@H](Cc3cc(C)nc(C)c3)C2)ccn1` (mixture of isomers) [Product 53]: the Emax worked out at 99% and the IC50 was 282 nM.

For `Cc1cc(C[C@H]2CCCN(C(C)c3cccc(C(F)(F)F)n3)C2)cc(C)n1` (mixture of isomers) [Product 61], the Emax worked out at 84% and the IC50 was 2290 nM.

Take `COc1ncc(C(C)N2CCC[C@H](Cc3cc(C)nc(C)c3)C2)cn1` (mixture of isomers) [Product 65]: the Emax is 93% and the IC50 is 933 nM.

For `COc1cccc(C(C)N2CCC[C@H](Cc3cc(OC)nc(C(F)(F)F)c3)C2)n1` (mixture of isomers) [Product 78], the Emax amounted to 101% and the IC50 was 355 nM.

`COc1ccc(F)c(C(C)N2CC[C@@H](Cc3cc(C)nc(C)c3)C2)n1` (mixture of isomers) [Product 98]: the Emax is 92% and the IC50 is 1120 nM.

As for `COc1cc(C(C)N2CC[C@@H](Cc3cc(C)nc(C)c3)C2)c(F)cn1` (mixture of isomers) [Product 99], the Emax turned out to be 91% and the IC50 is 646 nM.

On to `CNC(=O)c1cc(C(C)N2CC[C@H](Cc3cc(C)nc(OC)c3)C2)n[nH]1` (mixture of isomers) [Product 101], for which the Emax was determined as 75% and the IC50 is 3160 nM.

For the compound `COc1cc(C(C)N2CC[C@@H](Cc3cc(C)nc(OC)c3)C2)c(F)cn1` (mixture of isomers) [Product 102], the Emax worked out at 85% and the IC50 was 1700 nM.

For `CNC(=O)c1cncc(C(C)N2CC[C@H](Cc3cc(C)nc(OC)c3)C2)c1` (mixture of isomers) [Product 103], the Emax was 85% and the IC50 is 1660 nM.

On to `CC(=O)Nc1cc(C(C)N2CC[C@H](Oc3cc(C)nc(C)c3)C2)n[nH]1` (mixture of isomers) [Product 116], for which the Emax was 57% and the IC50 was 8320 nM.

In the case of `CCOc1cc(C(C)N2CC[C@H](Cc3cc(C)nc(C(F)(F)F)c3)C2)n[nH]1` (mixture of isomers) [Product 120], the Emax was 75% and the IC50 is 4170 nM.

Turning to `COc1cccc(C(C)N2CC[C@H](Cc3cc(C)nc(C(F)(F)F)c3)C2)n1` (mixture of isomers) [Product 121], the Emax was 96% and the IC50 is 741 nM.

`COc1cccc(C(C)N2CC[C@H](Cc3cc(OC)nc(C(F)(F)F)c3)C2)n1` (mixture of isomers) [Product 123]: the Emax worked out at 86% and the IC50 was 2820 nM.

In the case of `COc1cc(C[C@H]2CCN(C(C)c3cccc(OC)n3)C2)ccn1` (mixture of isomers) [Product 124], the Emax turned out to be 51% and the IC50 was 8710 nM.

`CCOc1cc(C[C@H]2CCN(C(C)c3cccc(OC)n3)C2)ccn1` (mixture of isomers) [Product 125]: the Emax amounted to 76% and the IC50 was 4170 nM.

In the case of `COc1cccc(C(C)N2CC[C@H](Cc3ccnc(OC(C)C)c3)C2)n1` (mixture of isomers) [Product 126], the Emax came out at 56% and the IC50 is 9550 nM.

In the case of `COc1cccc(C(C)N2CC[C@H](Cc3ccnc(C(F)(F)F)c3)C2)n1` (mixture of isomers) [Product 127], the Emax came out at 60% and the IC50 is 7240 nM.

On to `COc1cc(C[C@H]2CCN(C(C)c3cc(NC(C)=O)[nH]n3)C2)cc(C)n1` (mixture of isomers) [Product 128], for which the Emax is 94% and the IC50 is 575 nM.

On to `COc1cc(C[C@H]2CCN(C(C)c3cccc(OC)n3)C2)cc(C)n1` (mixture of isomers) [Product 129], for which the Emax was determined as 75% and the IC50 was 4370 nM.

As to `COc1cc(C[C@@H]2CCN(C(C)c3cc(NC(C)=O)[nH]n3)C2)cc(C)n1` (mixture of isomers) [Product 131], the Emax stood at 97% and the IC50 was 380 nM.

`COCc1cc(C(C)N2CC[C@@H](Cc3cc(C)nc(OC)c3)C2)nn1C` (mixture of isomers) [Product 132]: the Emax came out at 59% and the IC50 was 7760 nM.

For the compound `CCOc1cnc(C(C)N2CC[C@@H](Cc3cc(C)nc(OC)c3)C2)o1` (mixture of isomers) [Product 133], the Emax was 98% and the IC50 is 759 nM.

As to `CCOc1cc(C(C)N2CC[C@H](Cc3cc(C)nc(C)c3)C2)n[nH]1` (mixture of isomers) [Product 139], the Emax stood at 73.3% and the IC50 was 3980 nM.

With `COc1cccc(C(C)N2CC[C@H](Cc3cccnc3OC)C2)n1` (mixture of isomers) [Product 140], the Emax was found to be 29.3% and the IC50 was more than 10000 nM.

Regarding `COc1cccc(C(C)N2CC[C@H](Cc3cncc(C(F)(F)F)c3)C2)n1` (mixture of isomers) [Product 141], the Emax was determined as 35.6% and the IC50 was more than 10000 nM.

On to `COc1cccc(C(C)N2CC[C@H](Cc3ccc(C(F)(F)F)nc3)C2)n1` (mixture of isomers) [Product 142], for which the Emax was determined as 30.5% and the IC50 was more than 10000 nM.
